Read-outs that look alike come from different tables or passages of the source.
Experiments:
[1] = target: norepinephrine transporter (Homo sapiens, UniProt P23975); assay: LeadProfilingScreen, single target; type: binding; details: Transporter, Norepinephrine (NET), hum, 10 μM
Description: Evaluation of off-target effects. Off target effects of lead molecules of interest were evaluated using the LeadProfilingScreen commercial assay at Eurofins Panlabs (Bothell, Wash.). Reference standards were run as an integral part of each assay to ensure the validity of the results obtained. Assay results are presented as the percent inhibition of specific binding or activity (for n=2 replicates) for the probe compound tested at a concentration of 10 μM. Details regarding the individual assays and methods are provided in Supplementary Information File 51.
DU003 & DU011 are biologically selective. DU003 and DU011 were submitted to the Eurofins Panlabs LeadProfilingScreen to assess off-target pharmacology 1421. […] In review of PubChem data, DU011 (CID23602075) is reported to have shown activity in only 21 of 467 (4.5%, as of Sep. 5, 2013) bioassays in which it was tested (assays unrelated to the current project). Per PubChem, DU003 (CID18109210) is reported to have shown activity in only 5 of 427 (1.2%, as of Sep. 5, 2013) bioassays in which it was tested (assays unrelated to the current project).

[2] = Aqueous stability over 48 hours; type: physicochemical; details: aqueous PBS and 50:50 aqueous PBS:acetonitrile, room temperature
Description: Aqueous stability for the probe was assessed using two solvent systems (100% aqueous PBS, and 50:50 aqueous PBS: acetonitrile). The probe stability was measured in aqueous PBS (no antioxidants or other protectants, DMSO concentration below 0.1%, room temperature) and the results are reported as circles in the graph in FIG. 4. The probe stability was also measured in 50:50 aqueous PBS and acetonitrile and the results are reported as squares in the graph in FIG. 4. Stability data in each case is depicted as the loss of compound with time over 48 hours with a minimum of six time points and providing the percent compound remaining after 48 hours.

E. coli K1 strain UTI89 = assay: Secondary assay 2: T7 phage-mediated lysis assay; type: cell-based, Escherichia coli
Method in brief: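 E. coli K1 UTI89 shaken 1.5 h with compound (100–0.39 μM, quadruplicate, 1% DMSO), initial OD600 taken to flag growth effects without phage. T7 phage, whose entry is blocked by K capsule, then added; OD600 lysis read after 3 h at 37 °C, greater lysis indicating less capsule.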

[3] = Plasma protein binding, human; type: in vitro ADME
UPEC [4] = assay: Bacterial growth and viability without phage; type: cell-based, Escherichia coli
Description: Assay Set-up: This secondary assay was conducted in the 96 well plate format. […] Compounds were added to plates in a concentration dependent manner in the range of 100-0.39 μM, followed by addition of 100 μL of bacterial culture. Each concentration was tested in quadruplicate. 1% DMSO (final well concentration) was included. The plates were tape sealed and shaken vigorously for 1.5 hr. An initial OD600 reading at the time of infection was measured to identify compounds that cause growth retardation or bacterial killing in the absence of phage. Next, K1F phage (5 μL) was added to all of the test wells. The plates were resealed and shaken vigorously at 37° C., and measurements of OD600 for phage-mediated lysis were taken after 3 hr.
Assay Description: T7 phage-mediated lysis assay: This assay determined if the mechanism of action of the compound is inhibition of phage infectivity or replication. The T7 phage has a nearly identical genome to K1F, without encoding an endosialidase. Its cycle of replication is similar to that of K1F as well. However, T7 entry into E. coli is inhibited by K capsules. This secondary assay was conducted in the 96 well plate format. […] An initial OD600 reading was measured to identify compounds that cause growth retardation or bacterial killing in the absence of phage. […]

[5] = tested on: Methicillin Resistant Staphylococcus aureus (MRSA) Strain USA300; assay: Growth inhibition of MRSA in buffered TSB medium; type: cell-based
Description: FIG. 17. Inhibition of Methicillin Resistant Staphylococcus aureus (MRSA) Strain USA300 by ML317 (DU011). USA300 was grown shaking in TSB medium buffered at different pH as indicated in the figure with the addition of different concentrations of the chemical probe ML317. Growth was measured by absorbance readings as indicated.

PAMPA permeability = type: in vitro ADME; details: read-out: PAMPA Pe
UPEC [6] = assay: Emergence of spontaneous resistance on exposure to probe; type: cell-based, Escherichia coli; details: range of concentrations
Source text: The probe described herein is entirely novel with the only precedent being the structurally dissimilar molecule 2-(4-phenylphenyl)benzo[g]quinoline-4-carboxylic acid that we previously described in proof-of-concept studies (33). The probe described herein is uniquely poised for development as an infection-specific prevention and treatment therapeutic that enhances natural immune clearance of an infection, namely UTI. […] However, the probe has no effect on in vitro growth and viability of UPEC in the absence of immune factors. […] Furthermore, this probe would be expected to act upon traditional antibiotic resistant strains of E. coli.

norepinephrine transporter, sequence (P23975 whole entry): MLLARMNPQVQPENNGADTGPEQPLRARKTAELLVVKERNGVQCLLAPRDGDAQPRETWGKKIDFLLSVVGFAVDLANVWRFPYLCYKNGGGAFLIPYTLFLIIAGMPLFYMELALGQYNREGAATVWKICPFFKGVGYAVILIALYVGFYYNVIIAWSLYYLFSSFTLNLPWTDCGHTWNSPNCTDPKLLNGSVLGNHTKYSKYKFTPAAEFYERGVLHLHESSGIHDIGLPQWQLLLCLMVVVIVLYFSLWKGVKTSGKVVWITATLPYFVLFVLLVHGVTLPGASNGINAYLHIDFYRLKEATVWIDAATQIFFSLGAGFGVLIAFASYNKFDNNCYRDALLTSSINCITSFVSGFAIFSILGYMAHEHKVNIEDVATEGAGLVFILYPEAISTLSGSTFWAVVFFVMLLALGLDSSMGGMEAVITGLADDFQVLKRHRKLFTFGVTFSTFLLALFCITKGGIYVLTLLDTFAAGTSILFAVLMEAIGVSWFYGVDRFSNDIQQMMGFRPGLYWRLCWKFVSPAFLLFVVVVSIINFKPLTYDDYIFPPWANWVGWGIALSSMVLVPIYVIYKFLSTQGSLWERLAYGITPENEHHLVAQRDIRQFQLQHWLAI

Compound	% Inh. [1]	Aqueous stability [2]	IC50 (E. coli K1 strain UTI89; Escherichia coli, commercial sample, SID 103147605, read-out: T7 phage assay IC50)	IC50 (E. coli K1 strain UTI89; Escherichia coli, first round of synthetic analogues, n = 2, read-out: T7 phage IC50)	IC50 (E. coli K1 strain UTI89; Escherichia coli, purchased analogue series, n = 2, read-out: T7 phage IC50)	IC50 (E. coli K1 strain UTI89; Escherichia coli, synthesized sample, SID 126497311, read-out: T7 phage assay IC50)	IC50 (E. coli K1 strain UTI89; listed as CID 23602075, read-out: T7 phage IC50)	Plasma Protein Binding (% Bound) ([3]; 1 μM)	Plasma Protein Binding (% Bound) ([3]; 10 μM)	Effect on in vitro growth and viability of UPEC (UPEC [4]; absence of immune factors)	Effect on bacterial cell viability (UPEC [4]; highest tested concentration (100 μM))	Mode of action on MRSA (culture of bacteria from the experiments) [5]	Concentration sufficient to produce inhibition of MRSA ([5]; pH 5 and 5.5, TSB medium)	Growth of MRSA ([5]; pH 7, 100 and 200 μM)	Papp (PAMPA permeability; Donor pH 5.0, Acceptor pH 7.4, RT)	Papp (PAMPA permeability; Donor pH 6.2, Acceptor pH 7.4, RT)	Papp (PAMPA permeability; pH 7.4, Donor pH 7.4, Acceptor pH 7.4, RT)	Emergence of spontaneous resistance in the laboratory (UPEC [6])
CCOc1ccc(-c2cc(NC(=O)c3c(F)cccc3F)c(C(=O)O)s2)cc1 [KUC107784N-02]	13%																	
CCOc1ccc(-c2cc(NC(=O)c3c(F)cccc3F)c(C(=O)O)s2)cc1 [ML317, 3-(2,6-difluorobenzamido)-5-(4-ethoxyphenyl)thiophene-2-carboxylic acid]		stable	< 390 nM	< 625 nM	< 390 nM	< 625 nM	< 390 nM	99.68 % Bound	99.85 % Bound	no effect	no effect	bactericidal	25 to 50 µM	inhibited growth	14 ×10⁻⁶ cm/s	209 ×10⁻⁶ cm/s	52 ×10⁻⁶ cm/s	has not resulted in the emergence of spontaneous resistance
